Laboratory results as given in patent US8431566B2, “Cyclopamine lactam analogs and methods of use thereof” (Infinity Discovery, Inc., priority 2007, dated 2013).

What was measured:
[1] = test system: Hedgehog pathway in C3H10T1/2 cells; assay: C3H10T1/2 osteoblast differentiation assay (alkaline phosphatase readout, Shh-induced); format: cell-based; conditions: Mus musculus, C3H 10T1/2, Approximate EC50 for inhibition, sonic Hedgehog 250 ng/ml, AP activity normalized against total protein
From the text: Hedgehog pathway specific cancer cell killing effects may be ascertained using the following assay. C3H10T1/2 cells differentiate into osteoblasts when contacted with the sonic hedgehog peptide (Shh-N). Upon differentiation; these osteoblasts produce high levels of alkaline phosphatase (AP) which can be measured in an enzymatic assay (Nakamura, et al., BBRC (1997) 237:465). Compounds that block the differentiation of C3H10T1/2 into osteoblasts (a Shh dependent event) can therefore be identified by a reduction in AP production (van der Horst, et al., Bone (2003) 33:899). The assay details are described below. The results (EC50 for inhibition) of the differentiation assay are shown below in Table 1.
Mouse embryonic mesoderm fibroblasts C3H10T1/2 cells (obtained from ATCC) were cultured in Basal MEM Media (Gibco/Invitrogen) supplemented with 10% heat inactivated FBS (Hyclone), 50 units/ml penicillin and 50 ug/ml streptomycin (Gibco/Invitrogen) at 37° C. with 5% CO2 in air atmosphere.
C3H10T1/2 cells were plated in 96 wells with a density of 8×10^3 cells/well. Cells were grown to confluence (72 hrs). After sonic Hedgehog (250 ng/ml), and/or compound treatment, the cells were lysed in 110 μL, of lysis buffer (50 mM Tris pH 7.4, 0.1% Triton X 100), plates were sonicated and lysates spun through 0.2 μm PVDF plates (Corning). 40 μL of lysates was assayed for AP activity in alkaline buffer solution (Sigma) containing 1 mg/ml p-Nitrophenyl Phosphate. After incubating for 30 min at 37° C., the plates were read on an Envision plate reader at 405 nm. Total protein was quantified with a BCA protein assay kit from Pierce according to manufacturer's instructions. AP activity was normalized against total protein.

BXPC-3 cells = assay: Pancreatic cancer model: subcutaneous BXPC-3 tumors in mice, tumor volume; format: in vivo, human; conditions: BXPC-3 subcutaneous in mice; orally 30 mg/kg/day, 25 daily doses
Protocol: (§1) The activity of Compound 12 was further tested in a human pancreatic model: BXPC-3 cells were implanted subcutaneously into the flanks of the right legs of mice. On day 42 post-tumor implant, the mice were randomized into two groups to receive either Vehicle (30% HPBCD) or Compound 12. Compound 12 was administered orally at 30 mg/kg/day. After receiving 25 daily doses, Compound 12 reduced tumor volume growth by 16% when compared to the vehicle control. At the end of the study, the tumors were harvested 4 hours post the last dose to evaluate an on target response by q-RT-PCR analysis of the HH pathway genes.

human Gli-1 = assay: Pancreatic cancer model: q-RT-PCR of HH pathway genes in harvested tumors, human Gli-1; format: in vivo; conditions: BXPC-3 tumors harvested 4 hours post the last dose; 30 mg/kg/day orally
Protocol: as §1

murine Gli-1 mRNA = assay: Pancreatic cancer model: q-RT-PCR of HH pathway genes in harvested tumors, murine Gli-1; format: in vivo; conditions: BXPC-3 tumors harvested 4 hours post the last dose; 30 mg/kg/day orally
Protocol: as §1

Gli-1 mRNA = assay: Medulloblastoma model (Ptch1/Hic1 subcutaneous allografts): Gli-1 mRNA expression in tumors; format: in vivo, mouse; conditions: single oral dose, subcutaneously implanted medulloblastoma tumors, 8 hours post dose
Protocol: (§2) The activity of Compound 12 was also evaluated in a transgenic mouse model of medulloblastoma. Mice that are heterozygous for loss of function mutations in the tumor suppressors Patched1 (Ptch1) and Hypermethylated in Cancer (Hic1) develop spontaneous medulloblastoma. […] When passaged as subcutaneous allografts, these tumors grow aggressively and are Hedgehog pathway-dependent. This model was employed to evaluate the efficacy of orally administered Compound, and to correlate activity with drug exposure in plasma and tumors.

medulloblastoma = assay: Medulloblastoma model (Ptch1/Hic1 subcutaneous allografts): tumor growth; format: in vivo, mouse
Protocol: as §2

NCI-H929 = assay: Multiple myeloma colony growth in methylcellulose, NCI-H929; format: cell-based, human; conditions: treated 96 hours, plated in methylcellulose, colonies quantified 10-21 days later
Protocol: (§3) The ability of Compound 12 to inhibit the growth of multiple myeloma cells (MM) in vitro was tested, using human multiple myeloma cells lines (NCI-H929 and KMS12) and primary clinical bone marrow specimens derived from patients with MM. The cells were treated for 96 hours with Compound, washed, then plated in methylcellulose. Tumor colonies were quantified 10-21 days later as an indicator of cell growth potential following treatment.

KMS12 = assay: Multiple myeloma colony growth in methylcellulose, KMS12; format: cell-based, human; conditions: treated 96 hours, plated in methylcellulose, colonies quantified 10-21 days later
Protocol: as §3

[2] = test system: primary clinical bone marrow specimens derived from patients with MM; assay: Multiple myeloma colony growth in methylcellulose, primary clinical bone marrow specimens; format: cell-based, human; conditions: clinical samples from MM patients; treated 96 hours, plated in methylcellulose
Protocol: as §3

U937 = assay: AML colony formation in methylcellulose, U937; format: cell-based, human; conditions: 1.0 uM, 72 hours
Protocol: (§4) The ability of Compound 12 to inhibit the in vitro growth of human cell lines derived from patients with acute myeloid leukemia (AML, cell line U937) and myelodysplastic syndrome (MDS, cell line KG1 and KG1a) was studied. Each of the cell lines was treated for 72 hours with Compound 12 (1.0 uM) followed by plating in methylcellulose.

KG1 = assay: MDS colony formation in methylcellulose, KG1; format: cell-based, human; conditions: 1.0 uM, 72 hours
Protocol: as §4

KG1a = assay: MDS colony formation in methylcellulose, KG1a; format: cell-based, human; conditions: 1.0 uM, 72 hours
Protocol: as §4

L428 = assay: Hodgkin's disease colony formation in methylcellulose, L428; format: cell-based, human; conditions: HD, 1.0 uM, 72 hours
Protocol: (§5) The ability of Compound 12 to inhibit the in vitro growth of human cell lines derived from patients with non-Hodgkin's lymphoma (cell lines RL and Jeko-1) and Hodgkin's disease (cell line L428) was studied. Each of the cell lines was treated for 72 hours with Compound 12 (1.0 uM) followed by plating in methylcellulose.

RL = assay: Non-Hodgkin's lymphoma colony formation in methylcellulose, RL; format: cell-based, human; conditions: NHL, 1.0 uM, 72 hours
Protocol: as §5

Jeko-1 = assay: Non-Hodgkin's lymphoma colony formation in methylcellulose, Jeko-1; format: cell-based, human; conditions: NHL, 1.0 uM, 72 hours
Protocol: as §5

[3] = test system: Gli-reponsive luciferase reporter in REH; assay: Gli-responsive luciferase reporter transient transfection assay, REH; format: cell-based; conditions: 1 uM, vehicle alone 6.73
Protocol: (§6) The activity of Compound 12 (1 uM) against three pre-B cell acute lymphocytic leukemia cell lines (REH, RS4-11, and Nalm-6) was studied, using a transient transfection assay in which a Gli-reponsive luciferase reporter was transiently transfected into cells. Treatment with Compound 12 repressed luciferase activity compared to a vehicle treated control (Table 4).

[4] = test system: Gli-reponsive luciferase reporter in RS4-11; assay: Gli-responsive luciferase reporter transient transfection assay, RS4-11; format: cell-based; conditions: 1 uM, vehicle alone 12.97
Protocol: as §6

[5] = test system: Gli-reponsive luciferase reporter in Nalm-6; assay: Gli-responsive luciferase reporter transient transfection assay, Nalm-6; format: cell-based; conditions: 1 uM, vehicle alone 8.42
Protocol: as §6

REH = assay: Pre-B cell ALL colony formation in methylcellulose, REH; format: cell-based; conditions: treated 72 hours
Protocol: (§7) The effect of Compound 12 on the growth of two of these cell lines, treated in vitro for 72 hours, was also studied. Following treatment, cells were washed and plated in methylcellulose.

RS4-11 = assay: Pre-B cell ALL colony formation in methylcellulose, RS4-11; format: cell-based; conditions: treated 72 hours
Protocol: as §7

[6] = 2° plating (replating of colonies)

CC1=C2C[C@H]3[C@@H](CC[C@H]4NC(=O)CC[C@@]43C)C2CC[C@@]2(C1)O[C@@H]1C[C@H](C)CN[C@H]1[C@H]2C (some centres unmarked) [Compound 1]
EC50 [1]: < 0.02 µM

CC1=C2C[C@H]3[C@@H](CC[C@@H]4NC(=O)CC[C@@]43C)[C@@H]2CC[C@@]2(C1)O[C@@H]1C[C@H](C)CN[C@H]1[C@H]2C [Compound 11]
EC50 [1]: > 0.1 µM

CC1=C2C[C@H]3[C@@H](CC[C@@H]4CNC(=O)CC[C@@]43C)[C@@H]2CC[C@@]2(C1)O[C@@H]1C[C@H](C)CN[C@H]1[C@H]2C [Compound 12]
EC50 [1]: 0.02 to 0.1 µM | reduced tumor volume growth compared to the vehicle control (BXPC-3 cells): 16% | human Gli-1 modulation (q-RT-PCR) (human Gli-1): no modulation | murine Gli-1 mRNA levels (q-RT-PCR) compared to Vehicle treated group (murine Gli-1 mRNA): robust down-regulation | HH pathway regulation measured by Gli-1 mRNA expression (Gli-1 mRNA): dose-dependent down-regulation | ED50 (medulloblastoma; Mus musculus, daily oral dosing, medulloblastoma allografts, read-out: approximate effective daily oral dose for 50% inhibition of tumor growth (ED50)): 3 to 7.5 mg/kg | tumor regression (medulloblastoma; daily (QD) PO administration, at higher doses): frank tumor regression seen at higher doses | inhibition of tumor growth (medulloblastoma; daily (QD) PO administration, medulloblastoma allografts): dose dependent inhibition of tumor growth | % growth of cells (untreated control 100%) (NCI-H929): less than 25% | % growth of cells (untreated control 100%) (KMS12): less than 25% | % growth of cells (untreated control 100%) [2]: less than 25% | % colony formation with Compound 12 (relative to vehicle control) (U937): 43.4% | % colony formation with Compound 12 (relative to vehicle control) (KG1): 25.1% | % colony formation with Compound 12 (relative to vehicle control) (KG1a): 34.6% | % colony formation with Compound 12 (relative to vehicle control) (L428): 21.4% | % colony formation with Compound 12 (relative to vehicle control) (RL): 14.3% | % colony formation with Compound 12 (relative to vehicle control) (Jeko-1): 27.4% | Relative luc activity (+ Compound) [3]: 1.12 | Relative luc activity (+ Compound) [4]: 1.31 | Relative luc activity (+ Compound) [5]: 1.44 | % colony formation with Compound (relative to vehicle control) - 1° plating (REH; 1° plating): 63% | % colony formation with Compound (relative to vehicle control) - 2° plating (REH; [6]): 9% | % colony formation with Compound (relative to vehicle control) - 1° plating (RS4-11; 1° plating): 71% | % colony formation with Compound (relative to vehicle control) - 2° plating (RS4-11; [6]): 11%

CC1=C2C[C@H]3[C@@H](CC[C@@H]4CC(=O)NCC[C@@]43C)[C@@H]2CC[C@@]2(C1)O[C@@H]1C[C@H](C)CN[C@H]1[C@H]2C [Compound 19]
EC50 [1]: > 0.1 µM

CC1=C2C[C@H]3[C@@H](CC[C@@H]4CN(C)C(=O)CC[C@@]43C)[C@@H]2CC[C@@]2(C1)O[C@@H]1C[C@H](C)CN[C@H]1[C@H]2C [Compound 31]
EC50 [1]: 0.02 to 0.1 µM

CC1=C2C[C@H]3[C@@H](CC[C@@H]4CN(C)C(=O)CC[C@@]43C)[C@@H]2CC[C@@]2(C1)O[C@@H]1C[C@H](C)CN(S(C)(=O)=O)[C@H]1[C@H]2C [Compound 35]
EC50 [1]: > 0.1 µM

CC1=C2C[C@H]3[C@@H](CC[C@@H]4CNC(=O)CC[C@@]43C)[C@@H]2CC[C@@]2(C1)O[C@@H]1C[C@H](C)CN(S(C)(=O)=O)[C@H]1[C@H]2C [Compound 40]
EC50 [1]: < 0.02 µM

CC1=C2C[C@H]3[C@@H](CCC4=CN(C)C(=O)CC[C@@]43C)[C@@H]2CC[C@@]2(C1)O[C@@H]1C[C@H](C)CN[C@H]1[C@H]2C [Compound 41]
EC50 [1]: > 0.1 µM

CC1=C2C[C@H]3[C@@H](CC[C@@H]4CCN(S(C)(=O)=O)CC[C@@]43C)[C@@H]2CC[C@@]2(C1)O[C@@H]1C[C@H](C)CN(S(C)(=O)=O)[C@H]1[C@H]2C [Compound 50]
EC50 [1]: > 0.1 µM
